The test system of one data set is subjects with TRD. Conditions: human, in vivo, other: intranasal. The method, then: FIGS. 53 and 54 present means for blood pressure over time by treatment group in the maintenance phase.
Transient blood pressure increases peaked for the esketamine group at approximately 40 minutes post dose and returned closer to predose levels by 1.5 hours post dose.

Data set [1] has as its system female Sprague-Dawley rats, PCG/RSC of the brain. The data set can be described thus: Single dose neurotoxicity study, intranasal instillation. Conditions: single dose, 72 mg. The method, then:
Esketamine HCl was instilled intranasally at doses of 0 (vehicle), 36, 54 or 72 mg (expressed as esketamine base) to female rats on a single day. The dose levels were obtained by 2, 3 or 4 subsequent intranasal instillations, respectively, into both nostrils at a volume of 50 μL per nostril. At each instillation, the second nostril was dosed immediately after the first nostril. The interval between subsequent instillations into both nostrils was 5 minutes.
The vehicle control group received 4 subsequent intranasal instillations of the vehicle into both nostrils (50 μL per nostril) with 5-minute intervals.
The injection volume was 5 mL/kg.
The vehicle- and the 36 and 54 mg-dosed groups consisted of 24 animals per group, while the 72 mg-dosed and positive control groups involved 30 animals per group. Four satellite animals were added to the esketamine HCl-dosed groups of main study animals for toxicokinetic (TK) purposes. In these animals the plasma exposure to esketamine was measured on the day of dosing at various time points up to and including 24 hours after the first instillation.
Prior to the perfusion, rats were anesthetized with isoflurane. After injection of 0.1 ml heparin, the blood of the rat was flushed out with a physiological saline solution by intraarterial insertion of a needle in the abdominal aorta. Thereafter the rat was perfused with glutaraldehyde 3% in potassium phosphate 0.09M and 1.4% sucrose. Due to logistic constraints at maximum 30 animals could undergo the whole-body perfusion procedure on a given day. Therefore, a staggered start of treatment was applied to all 5 groups of main study animals. Consequently, subgroups of 4 main study animals of the vehicle- and 36 and 54 mg-dosed groups, and 5 main study animals of the 72 mg-dosed and positive control groups, were dosed on 6 consecutive days, respectively.
The vehicle control, positive control, and esketamine HCl-dosed animals were sacrificed at either 48 hours (i.e., the first 12 or 15 rats per group) or 96 hours after the dose administration time (i.e., the last 12 or 15 rats per group). The brain tissue of the vehicle control-, positive control- and esketamine HCl-treated rats were processed at the same time and handled in the same way in batches of 4 or 5 animals per group.
Furthermore, clinical observations were recorded for the esketamine HCl-dosed rats on the day of dosing at 0 till 5 minutes, 15 and 30 minutes, and at 1, 2, 4, 6 hours post-dose, at the end of the working day and at 24 hours after the last instillation in the single dose study and on the first day of dosing, after one week and towards the end of the dosing period in the repeated dose study. Body weight and body weight gain were measured daily. Food consumption was measured weekly in the repeated dose study.
On the day of terminal kill, a complete physical examination was performed on the rats in fasted condition and body weight was recorded. The surviving animals were anaesthetized by inhalation of an isoflurane (IsoFlo® Zoetis, Belgium)/oxygen mixture and killed by exsanguination via the carotid artery. […] All terminally killed rats or those killed pre-terminally were perfused with 4% paraformaldehyde in the single dose study and with glutaraldehyde 3% in potassium phosphate buffer 0.09 M with 1.4% sucrose in the repeated dose study.
Brain tissue was sampled and processed routinely. The trimmed and embedded tissue was sectioned and stained with hematoxylin-eosin (HE). Histoprocessing and staining were carried out in three batches of 4 animals per group (each batch thus containing 4 animals from vehicle control-, positive control- and the three esketamine HCl-treated groups). In the single dose study duplicate brain sections were stained with Fluoro-Jade (FJ).
All tissues showing gross abnormalities were examined macroscopically.

Data set [2] relates to subjects with MDD at imminent risk for suicide. The following applies: esketamine 84 mg.
Procedure: The CADSS was measured prior to the start of each dose, at 40 minutes. 2 hours, and 4 hours postdose.
Data set [3] deals with patients with treatment-resistant depression (TRD). Kind of data set: Response, remission and relapse rates (MADRS), Example 7. It is filed as in vivo, human. Conditions: Period 2 endpoint. The source says:
A similar trend for remission (defined as MADRS total score≤10) was observed across groups. […] Response and remission rates at the end of the open-label and follow-up phases are presented by type of treatment in the double-blind and open-label phases in Table 161.

The test system of data set [4] is subjects with MDD at imminent risk for suicide. It is filed as in vivo, human. Conditions: esketamine 84 mg; safety analysis set. On the procedure: Of the 68 subjects in the all randomized analysis set, 19 (27.9%) subjects discontinued from the double-blind phase. More subjects in the esketamine 84 mg group discontinued due to adverse events (5 subjects in the esketamine 84 mg group versus 1 subject in the placebo group) whereas more subjects in the placebo group discontinued due to lack of efficacy (4 subjects in the placebo group versus 1 subject in the esketamine 84 mg group).
More subjects in the esketamine 84 mg group than in the placebo group had all 8 dosing sessions (74.3% vs. 64.5%). Five subjects reduced their dose of esketamine from 84 mg to 56 mg. Of these, 3 reduced their dose due to an adverse event and 2 had their dose reduced in error and were considered major protocol deviations.

Take `CN[C@]1(c2ccccc2Cl)CCCCC1=O` [esketamine, (S)-2-(2-chlorophenyl)-2-(methylamino)cyclohexanone]: in the data set with subjects with TRD, the “Time of peak of transient blood pressure increases” value was “approximately 40 minutes post dose” and the “Time of return of blood pressure closer to predose levels” value was at most 1.5 hours post dose. In data set [1], the “AUC-based safety margin compared with the maximum 84 mg clinical dose” value is around 86 fold and the “Cmax-based safety margin compared with the maximum 84 mg clinical dose” value was “approximately 60 fold”. For the same molecule, the “Time to resolution of dissociative symptoms (CADSS)” value in data set [2] is at most 2 h. The “Proportion of responders (≥50% improvement from baseline in MADRS total score)” value in data set [3] (56 mg) is listed as 36.4%. Further, the “Proportion of responders (≥50% improvement from baseline in MADRS total score)” value in data set [3] (84 mg) stood at 50.0%. Moreover, in data set [4], the “Dose decreased during double-blind: No” value is given as 29 (82.9%) and the “Dose decreased during double-blind: Yes” value is reported as 6 (17.1%).

(Values after patent publication US11707440B2 (priority 2017, dated 2023).)
